Experiment [1] relates to P70S6K (Thr389) phosphorylation (mTORC1) in MDA-MB-468 cells. As to the kind of experiment: Cell based AlphaLISA assay, mTOR kinase cellular assay: inhibition of p-P70S6K (T389) in MDA-MB-468 cells. The following applies: Homo sapiens, read-out: pIC50 for Inhibition of mTORC1 and mTORC2 Substarte Phosphorylation p-P70S6K-(T389) (converted). The procedure:
(§1) Cell Based AlphaLISA Assays for Determining IC50 For Inhibition of P-Akt (S473), P-4E-BP1 (T37/46), and P-P70S6K (T389) in MDA-MB-468 Cells
(§2) mTOR Kinase Cellular Assay
(§3) To measure functional activity of mTORC1 and mTORC2 in cells the phosphorylation of 4EBP1 (Thr37/46) and P70S6K (Thr389), and AKT1/2/3 (Ser473) was monitored using AlphaLisa SureFire Ultra Kits (Perkin Elmer). MDA-MB-468 cells (ATCC® HTB-132) were cultured in 96-well tissue culture plates and treated with compounds in the disclosure at concentrations varying from 0.017-1,000 nM for two to four hours at 37° C. Incubations were terminated by removal of the assay buffer and addition of lysis buffer provided with the assay kit. Samples were processed according to the manufacturer's instructions. The Alpha signal from the respective phosphoproteins was measured in duplicate using a microplate reader (Envision, Perkin-Elmer or Spectramax M5, Molecular Devices). Inhibitor concentration response curves were analyzed using normalized IC50 regression curve fitting with control based normalization.

Experiment [2] relates to AKT1/2/3 (Ser473) phosphorylation (mTORC2) in MDA-MB-468 cells. Nature of the experiment: Cell based AlphaLISA assay, mTOR kinase cellular assay: inhibition of p-Akt (S473) in MDA-MB-468 cells. Particulars: Homo sapiens, read-out: pIC50 for Inhibition of mTORC1 and mTORC2 Substarte Phosphorylation p-AKT1/2/3-(S473) (converted). A digest of the protocol:
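MDA-MB-468 cells treated with compound at 0.017-1,000 nM for two to four hours at 37° C, then lysed. Phospho-AKT1/2/3 S473, 4EBP1 T37/46 and P70S6K T389 quantified by AlphaLISA SureFire Ultra in duplicate; IC50 from normalized regression with control-based normalization.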

Experiment [3] relates to 4EBP1 (Thr37/46) phosphorylation (mTORC1) in MDA-MB-468 cells. Nature of the experiment: Cell based AlphaLISA assay, mTOR kinase cellular assay: inhibition of p-4E-BP1 (T37/46) in MDA-MB-468 cells. The following applies: Homo sapiens, read-out: pIC50 for Inhibition of mTORC1 and mTORC2 Substarte Phosphorylation p-4E-BP1-(T37/46) (converted). The procedure: as §1, §2, §3

For `CO[C@H]1C[C@@H]2CC[C@@H](C)[C@@](O)(O2)C(=O)C(=O)N2CCCC[C@H]2C(=O)O[C@H]([C@H](C)C[C@@H]2CC[C@@H](OC(=O)NCCOCCOCCOCCOCCOCCOCCOCCOCCOCCOCCC(=O)N3CCC(n4nc(-c5cnc6[nH]ccc6c5)c5c(N)ncnc54)CC3)[C@H](OC)C2)CC(=O)[C@H](C)/C=C(\C)[C@@H](O)[C@@H](OC)C(=O)[C@H](C)C[C@H](C)/C=C/C=C/C=C/1C` [Example 20], the values for the IC50 in experiment [1], in experiment [2] and in experiment [3] were no more than 1 nM, no more than 3.16 nM and no more than 3.16 nM, respectively.
For the molecule `CO[C@H]1C[C@@H]2CC[C@@H](C)[C@@](O)(O2)C(=O)C(=O)N2CCCC[C@H]2C(=O)O[C@H]([C@H](C)C[C@@H]2CC[C@@H](OC(=O)NCCOCCOCCOCCOCCOCCC(=O)NCCOCCOCCOCCOCCOCCC(=O)N3CCc4cc(Cn5nc(-c6cnc7[nH]ccc7c6)c6c(N)ncnc65)ccc4C3)[C@H](OC)C2)CC(=O)[C@H](C)/C=C(\C)[C@@H](O)[C@@H](OC)C(=O)[C@H](C)C[C@H](C)/C=C/C=C/C=C/1C` [Example 21], the IC50 in experiment [1] was no more than 1 nM; in experiment [2], 31.6 to 1000 nM; in experiment [3], no more than 3.16 nM.
For `CO[C@H]1C[C@@H]2CC[C@@H](C)[C@@](O)(O2)C(=O)C(=O)N2CCCC[C@H]2C(=O)O[C@H]([C@H](C)C[C@@H]2CC[C@@H](OC(=O)NCc3cnc(N4CCN(c5ncc(C(=O)NCCOCCOCCOCCOCCC(=O)N6CCc7cc(Cn8nc(-c9ccc%10oc(N)nc%10c9)c9c(N)ncnc98)ccc7C6)cn5)CC4)nc3)[C@H](OC)C2)CC(=O)[C@H](C)/C=C(\C)[C@@H](O)[C@@H](OC)C(=O)[C@H](C)C[C@H](C)/C=C/C=C/C=C/1C` [Example 27] the same measures were no more than 1 nM, 3.16 to 31.6 nM and no more than 3.16 nM.
With `CO[C@H]1C[C@@H]2CC[C@@H](C)[C@@](O)(O2)C(=O)C(=O)N2CCCC[C@H]2C(=O)O[C@H]([C@H](C)C[C@@H]2CC[C@@H](OC(=O)NCc3cnc(N4CCN(c5ncc(C(=O)NCCOCCOCCOCCOCCC(=O)N6CCc7cc(Cn8nc(-c9ccc%10oc(N)nc%10c9)c9c(N)ncnc98)ccc7C6)cn5)CC4)nc3)[C@H](OC)C2)C[C@@H](O)[C@H](C)/C=C(\C)[C@@H](O)[C@@H](OC)C(=O)[C@H](C)C[C@H](C)/C=C/C=C/C=C/1C` [Example 28], the IC50 in experiment [1] is no more than 1 nM; in experiment [2], greater than 1000 nM; in experiment [3] it was no more than 3.16 nM.
The matching figures for `CO[C@H]1C[C@@H]2CC[C@@H](C)[C@@](O)(O2)C(=O)C(=O)N2CCCC[C@H]2C(=O)O[C@H]([C@H](C)C[C@@H]2CC[C@@H](OC(=O)NCc3cnc(N4CCN(c5ncc(C(=O)NCCOCCOCCOCCOCCC(=O)N6CCc7cc(Cn8nc(-c9ccc%10oc(N)nc%10c9)c9c(N)ncnc98)ccc7C6)cn5)CC4)nc3)[C@H](OC)C2)C[C@@H](OC)[C@H](C)/C=C(\C)[C@@H](O)[C@@H](OC)C(=O)[C@H](C)C[C@H](C)/C=C/C=C/C=C/1C` [Example 29]: no more than 1 nM, greater than 1000 nM and no more than 3.16 nM.
For `CO[C@H]1C[C@@H]2CC[C@@H](C)[C@@](O)(O2)C(=O)C(=O)N2CCCC[C@H]2C(=O)O[C@H]([C@H](C)C[C@@H]2CC[C@@H](OC(=O)NCc3cnc(N4CCN(c5ncc(C(=O)NCCOCCOCCC(=O)N6CCc7cc(Cn8nc(-c9ccc%10oc(N)nc%10c9)c9c(N)ncnc98)ccc7C6)cn5)CC4)nc3)[C@H](OC)C2)CC(=O)[C@H](C)/C=C(\C)[C@@H](O)[C@@H](OC)C(=O)[C@H](C)C[C@H](C)/C=C/C=C/C=C/1C` [Example 31] the same measures were no more than 1 nM, 3.16 to 31.6 nM and no more than 3.16 nM.
For `CO[C@H]1C[C@@H]2CC[C@@H](C)[C@@](O)(O2)C(=O)C(=O)N2CCCC[C@H]2C(=O)O[C@H]([C@H](C)C[C@@H]2CC[C@@H](OC(=O)NCc3cnc(N4CCN(c5ncc(C(=O)NCCOCCOCCOCCOCCC(=O)NCCCCn6nc(-c7cnc8[nH]ccc8c7)c7c(N)ncnc76)cn5)CC4)nc3)[C@H](OC)C2)CC(=O)[C@H](C)/C=C(\C)[C@@H](O)[C@@H](OC)C(=O)[C@H](C)C[C@H](C)/C=C/C=C/C=C/1C` [Example 32] the same measures were no more than 1 nM, 3.16 to 31.6 nM and no more than 3.16 nM.
With `CO[C@H]1C[C@@H]2CC[C@@H](C)[C@@](O)(O2)C(=O)C(=O)N2CCCC[C@H]2C(=O)O[C@H]([C@H](C)C[C@@H]2CC[C@@H](OC(=O)NCc3cnc(N4CCN(c5ncc(C(=O)NCCOCCOCCOCCOCCC(=O)N6CCc7cc(Cn8nc(-c9cnc%10[nH]ccc%10c9)c9c(N)ncnc98)ccc7C6)cn5)CC4)nc3)[C@H](OC)C2)CC(=O)[C@H](C)/C=C(\C)[C@@H](O)[C@@H](OC)C(=O)[C@H](C)C[C@H](C)/C=C/C=C/C=C/1C` [Example 33], the IC50 in experiment [1] is no more than 1 nM; in experiment [2] it was greater than 1000 nM; in experiment [3], no more than 3.16 nM.
For `CO[C@H]1C[C@@H]2CC[C@@H](C)[C@@](O)(O2)C(=O)C(=O)N2CCCC[C@H]2C(=O)O[C@H]([C@H](C)C[C@@H]2CC[C@@H](OC(=O)N(C)Cc3cnc(N4CCN(c5ncc(C(=O)NCCOCCOCCOCCOCCC(=O)N6CCc7cc(Cn8nc(-c9cnc%10[nH]ccc%10c9)c9c(N)ncnc98)ccc7C6)cn5)CC4)nc3)[C@H](OC)C2)CC(=O)[C@H](C)/C=C(\C)[C@@H](O)[C@@H](OC)C(=O)[C@H](C)C[C@H](C)/C=C/C=C/C=C/1C` [Example 34] the same measures were no more than 1 nM, greater than 1000 nM and greater than 1000 nM.
On to `CO[C@H]1C[C@@H]2CC[C@@H](C)[C@@](O)(O2)C(=O)C(=O)N2CCCC[C@H]2C(=O)O[C@H]([C@H](C)C[C@@H]2CC[C@@H](OC(=O)N3CCc4nc(N5CCN(c6ncc(C(=O)NCCOCCOCCOCCOCCC(=O)NCCCCn7nc(-c8cnc9[nH]ccc9c8)c8c(N)ncnc87)cn6)CC5)ncc4C3)[C@H](OC)C2)CC(=O)[C@H](C)/C=C(\C)[C@@H](O)[C@@H](OC)C(=O)[C@H](C)C[C@H](C)/C=C/C=C/C=C/1C` [Example 35], for which the IC50 in experiment [1] is no more than 1 nM; in experiment [2], 3.16 to 31.6 nM; in experiment [3], no more than 3.16 nM.
In the case of `CO[C@H]1C[C@@H]2CC[C@@H](C)[C@@](O)(O2)C(=O)C(=O)N2CCCC[C@H]2C(=O)O[C@H]([C@H](C)C[C@@H]2CC[C@@H](OC(=O)N3CCc4nc(N5CCN(c6ncc(C(=O)NCCOCCOCCOCCOCCC(=O)N7CCc8cc(Cn9nc(-c%10cnc%11[nH]ccc%11c%10)c%10c(N)ncnc%109)ccc8C7)cn6)CC5)ncc4C3)[C@H](OC)C2)CC(=O)[C@H](C)/C=C(\C)[C@@H](O)[C@@H](OC)C(=O)[C@H](C)C[C@H](C)/C=C/C=C/C=C/1C` [Example 36], the IC50 is no more than 1 nM in experiment [1], greater than 1000 nM in experiment [2] and no more than 3.16 nM in experiment [3].
For `CO[C@H]1C[C@@H]2CC[C@@H](C)[C@@](O)(O2)C(=O)C(=O)N2CCCC[C@H]2C(=O)O[C@H]([C@H](C)C[C@@H]2CC[C@@H](OC(=O)N3CCN(c4ncc(C(=O)NCCOCCOCCOCCOCCOCCC(=O)N5CCc6cc(Cn7nc(-c8cnc9[nH]ccc9c8)c8c(N)ncnc87)ccc6C5)cn4)CC3)[C@H](OC)C2)CC(=O)[C@H](C)/C=C(\C)[C@@H](O)[C@@H](OC)C(=O)[C@H](C)C[C@H](C)/C=C/C=C/C=C/1C` [Example 37] the same measures were no more than 1 nM, greater than 1000 nM and no more than 3.16 nM.
The matching figures for `CO[C@H]1C[C@@H]2CC[C@@H](C)[C@@](O)(O2)C(=O)C(=O)N2CCCC[C@H]2C(=O)O[C@H]([C@H](C)C[C@@H]2CC[C@@H](OC(=O)N3CCc4nc(N5CCN(CCOCCOCCOCCOCCOCCC(=O)N6CCc7cc(Cn8nc(-c9cnc%10[nH]ccc%10c9)c9c(N)ncnc98)ccc7C6)CC5)ncc4C3)[C@H](OC)C2)CC(=O)[C@H](C)/C=C(\C)[C@@H](O)[C@@H](OC)C(=O)[C@H](C)C[C@H](C)/C=C/C=C/C=C/1C` [Example 38]: no more than 1 nM, greater than 1000 nM and greater than 1000 nM.
For `CO[C@H]1C[C@@H]2CC[C@@H](C)[C@@](O)(O2)C(=O)C(=O)N2CCCC[C@H]2C(=O)O[C@H]([C@H](C)C[C@@H]2CC[C@@H](OC(=O)N3CCc4nc(N5CCN(c6ncc(C(=O)NCCOCCOCCOCCOCCC(=O)N7CCc8cc(Cn9nc(-c%10ccc%11oc(N)nc%11c%10)c%10c(N)ncnc%109)ccc8C7)cn6)CC5)ncc4C3)[C@H](OC)C2)CC(=O)[C@H](C)/C=C(\C)[C@@H](O)[C@@H](OC)C(=O)[C@H](C)C[C@H](C)/C=C/C=C/C=C/1C` [Example 39], the IC50 is no more than 1 nM in experiment [1], no more than 3.16 nM in experiment [2] and no more than 3.16 nM in experiment [3].

The values above are taken from US20230233569A1 (Revolution Medicines, Inc., priority 2020, published 2023).
